Results: PubChem BioAssay AID2060509 (Molecular Pharmacology Branch, DTP, NCI, 2025)

Test system: 485176-168-R4-J1-PDC spheroids with HUVEC/MSC, viability
Assay: Anticancer human tumor 485176-168-R4-J1-PDC patient-derived pancreatic adenocarcinoma cell line growth inhibition [GQUAD]
Settings: for IC50: curve of first compound; for viability, T/C: stronger effect = lower value
How it was run: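 Viability of tumor cells grown as complex spheroids with endothelial and stromal cells, exposed to drug combinations. Top concentration at or near clinical Cmax (else 10 microM), diluted in half-log increments.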

[1] = second compound 0.0316 µM, first compound 0.0316 µM
[2] = second compound 0.0316 µM, first compound 0.1 µM
[3] = second compound 0.0316 µM, first compound 0.316 µM
[4] = second compound 0.0316 µM, first compound 1 µM
[5] = second compound 0.0316 µM, first compound 3.16 µM
[6] = second compound 0.0316 µM, first compound 10 µM
[7] = second compound 0.1 µM, first compound 0.0316 µM
[8] = second compound 0.1 µM, first compound 0.1 µM
[9] = second compound 0.1 µM, first compound 0.316 µM
[10] = second compound 0.1 µM, first compound 1 µM
[11] = second compound 0.1 µM, first compound 3.16 µM
[12] = second compound 0.1 µM, first compound 10 µM
[13] = second compound 0.316 µM, first compound 0.0316 µM
[14] = second compound 0.316 µM, first compound 0.1 µM
[15] = second compound 0.316 µM, first compound 0.316 µM
[16] = second compound 0.316 µM, first compound 1 µM
[17] = second compound 0.316 µM, first compound 3.16 µM
[18] = second compound 0.316 µM, first compound 10 µM
[19] = second compound 1 µM, first compound 0.0316 µM
[20] = second compound 1 µM, first compound 0.1 µM
[21] = second compound 1 µM, first compound 0.316 µM
[22] = second compound 1 µM, first compound 1 µM
[23] = second compound 1 µM, first compound 3.16 µM
[24] = second compound 1 µM, first compound 10 µM
[25] = second compound 3.16 µM, first compound 0.0316 µM
[26] = second compound 3.16 µM, first compound 0.1 µM
[27] = second compound 3.16 µM, first compound 0.316 µM
[28] = second compound 3.16 µM, first compound 1 µM
[29] = second compound 3.16 µM, first compound 3.16 µM
[30] = second compound 3.16 µM, first compound 10 µM
[31] = second compound 10 µM, first compound 0.0316 µM
[32] = second compound 10 µM, first compound 0.1 µM
[33] = second compound 10 µM, first compound 0.316 µM
[34] = second compound 10 µM, first compound 1 µM
[35] = second compound 10 µM, first compound 3.16 µM
[36] = second compound 10 µM, first compound 10 µM
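Further: spheroids exposed to compounds for seven days before readout.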
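Wherever viability, T/C is given: percent viability relative to DMSO vehicle control wells as 100%.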

Q: With `COc1cc(C2c3cc4c(cc3C(OC3OC5COC(C)OC5C(O)C3O)C3COC(=O)C23)OCO4)cc(OC)c1O` (centres undefined) + Cc1[nH]c2ccc(F)cc2c1-c1nc2c3cccnc3c3ncccc3c2[nH]1 as the compound, how does the IC50 (second compound 0.0316 µM) read?
A: 317 nM

Q: And the IC50 (second compound 0.1 µM)?
A: 266 nM

Q: What about the IC50 (second compound 0.316 µM) of the same compound?
A: 650 nM

Q: And the IC50 (second compound 1 µM)?
A: 403 nM

Q: What about the IC50 (second compound 3.16 µM) of the same compound?
A: 344 nM

Q: And the IC50 (second compound 10 µM)?
A: 344 nM

Q: What about the viability, T/C [1] of the same compound?
A: 89.3%

Q: What about the viability, T/C [2] of the same compound?
A: 63%

Q: What about the viability, T/C [3] of the same compound?
A: 43.9%

Q: What about the viability, T/C [4] of the same compound?
A: 43%

Q: What about the viability, T/C [5] of the same compound?
A: 29.5%

Q: And the viability, T/C [6]?
A: 12.7%

Q: And the viability, T/C [7]?
A: 92.3%

Q: And the viability, T/C [8]?
A: 68.7%

Q: What about the viability, T/C [9] of the same compound?
A: 37.5%

Q: And the viability, T/C [10]?
A: 42.1%

Q: And the viability, T/C [11]?
A: 24%

Q: What about the viability, T/C [12] of the same compound?
A: 12.5%

Q: What about the viability, T/C [13] of the same compound?
A: 86.1%

Q: What about the viability, T/C [14] of the same compound?
A: 97.7%

Q: What about the viability, T/C [15] of the same compound?
A: 52.9%

Q: And the viability, T/C [16]?
A: 44.4%

Q: What about the viability, T/C [17] of the same compound?
A: 29.4%

Q: And the viability, T/C [18]?
A: 13%

Q: What about the viability, T/C [19] of the same compound?
A: 89.6%

Q: And the viability, T/C [20]?
A: 67.7%

Q: And the viability, T/C [21]?
A: 47.4%

Q: And the viability, T/C [22]?
A: 44.5%

Q: What about the viability, T/C [23] of the same compound?
A: 24.9%

Q: And the viability, T/C [24]?
A: 15.1%

Q: What about the viability, T/C [25] of the same compound?
A: 77.3%

Q: And the viability, T/C [26]?
A: 65.7%

Q: What about the viability, T/C [27] of the same compound?
A: 43.6%

Q: What about the viability, T/C [28] of the same compound?
A: 42.8%

Q: What about the viability, T/C [29] of the same compound?
A: 28.7%

Q: And the viability, T/C [30]?
A: 13%

Q: What about the viability, T/C [31] of the same compound?
A: 96.2%

Q: What about the viability, T/C [32] of the same compound?
A: 69.9%

Q: What about the viability, T/C [33] of the same compound?
A: 44%

Q: And the viability, T/C [34]?
A: 44.8%

Q: What about the viability, T/C [35] of the same compound?
A: 24.9%

Q: And the viability, T/C [36]?
A: 13.2%

Q: With `COc1cccc2c1C(=O)c1c(O)c3c(c(O)c1C2=O)CC(O)(C(=O)CO)CC3OC1CC(N)C(O)C(C)O1` (centres undefined) + Cc1[nH]c2ccc(F)cc2c1-c1nc2c3cccnc3c3ncccc3c2[nH]1 as the compound, how does the IC50 (second compound 0.0316 µM) read?
A: 391 nM

Q: And the IC50 (second compound 0.1 µM)?
A: 267 nM

Q: And the IC50 (second compound 0.316 µM)?
A: 259 nM

Q: And the IC50 (second compound 1 µM)?
A: 433 nM

Q: And the IC50 (second compound 3.16 µM)?
A: 249 nM

Q: What about the IC50 (second compound 10 µM) of the same compound?
A: 314 nM

Q: And the viability, T/C [1]?
A: 90.1%

Q: And the viability, T/C [2]?
A: 71.5%

Q: What about the viability, T/C [3] of the same compound?
A: 61.1%

Q: What about the viability, T/C [4] of the same compound?
A: 14.7%

Q: And the viability, T/C [5]?
A: 4.77%

Q: What about the viability, T/C [6] of the same compound?
A: 0.13%

Q: What about the viability, T/C [7] of the same compound?
A: 106%

Q: And the viability, T/C [8]?
A: 71.6%

Q: And the viability, T/C [9]?
A: 49.5%

Q: And the viability, T/C [10]?
A: 23.3%

Q: What about the viability, T/C [11] of the same compound?
A: 3.92%

Q: And the viability, T/C [12]?
A: 0.39%

Q: And the viability, T/C [13]?
A: 81.4%

Q: And the viability, T/C [14]?
A: 65.9%

Q: And the viability, T/C [15]?
A: 47.4%

Q: And the viability, T/C [16]?
A: 23.6%

Q: And the viability, T/C [17]?
A: 3.52%

Q: What about the viability, T/C [18] of the same compound?
A: 0.18%

Q: And the viability, T/C [19]?
A: 86.1%

Q: What about the viability, T/C [20] of the same compound?
A: 72.5%

Q: And the viability, T/C [21]?
A: 60.9%

Q: And the viability, T/C [22]?
A: 26.8%

Q: And the viability, T/C [23]?
A: 4.08%

Q: What about the viability, T/C [24] of the same compound?
A: 0.14%

Q: And the viability, T/C [25]?
A: 82.9%

Q: What about the viability, T/C [26] of the same compound?
A: 59.3%

Q: What about the viability, T/C [27] of the same compound?
A: 52%

Q: And the viability, T/C [28]?
A: 24.9%

Q: What about the viability, T/C [29] of the same compound?
A: 19.5%

Q: What about the viability, T/C [30] of the same compound?
A: 0.2%

Q: And the viability, T/C [31]?
A: 82%

Q: And the viability, T/C [32]?
A: 70.6%

Q: And the viability, T/C [33]?
A: 50.8%

Q: What about the viability, T/C [34] of the same compound?
A: 21.8%

Q: And the viability, T/C [35]?
A: 3.95%

Q: And the viability, T/C [36]?
A: 0.38%
